One may read the inhibition as the drop in the measured response relative to a control, in per cent.

Format in all cases: biochemical
The target of assay [1] is T1, EfMetAP1b (Enterococcus faecalis, UniProt Q832M5).
T1 construct: gene map; expressed in E. coli and purified
T1 sequence (Q832M5 1-254): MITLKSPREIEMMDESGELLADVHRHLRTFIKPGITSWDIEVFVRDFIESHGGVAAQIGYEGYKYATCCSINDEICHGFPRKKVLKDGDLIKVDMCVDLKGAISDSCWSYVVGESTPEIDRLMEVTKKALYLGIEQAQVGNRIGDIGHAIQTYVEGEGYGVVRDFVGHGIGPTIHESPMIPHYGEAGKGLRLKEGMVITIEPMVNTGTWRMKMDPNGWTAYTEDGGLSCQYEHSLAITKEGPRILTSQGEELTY
Description: fluorescence, substrate hydrolysis. The note with it: room temperature; metal not given.

In assay [2] the target is T2, HsMetAP1b (Homo sapiens, UniProt P53582).
T2 construct: gene METAP1; expressed in E. coli and purified
Description: fluorescence, substrate hydrolysis. The following applies: room temperature; metal not given.

In assay [3] the target is T3, MtMetAP1c (Mycobacterium tuberculosis, UniProt P9WK19).
T3 construct: gene map
The following applies: room temperature; metal not given.

In assay [4] the target is T1, EfMetAP1b. Description: fluorescence, hydrolysis of methionyl aminomethylcoumarin.
Assay [5] deals with T3, MtMetAP1c. Described as above.
Assay [6] has as its target T2, HsMetAP1b. The assay is described as above.

Structures are written as SMILES.

T3 sequence (P9WK19 whole entry, looked up): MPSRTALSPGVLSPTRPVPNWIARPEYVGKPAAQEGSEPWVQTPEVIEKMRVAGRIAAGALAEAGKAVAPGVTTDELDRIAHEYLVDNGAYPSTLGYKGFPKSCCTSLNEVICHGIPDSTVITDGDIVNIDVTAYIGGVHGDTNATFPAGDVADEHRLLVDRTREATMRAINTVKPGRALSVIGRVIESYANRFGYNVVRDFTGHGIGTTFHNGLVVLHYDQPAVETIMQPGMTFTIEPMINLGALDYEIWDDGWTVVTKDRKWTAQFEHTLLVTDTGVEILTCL

With `CSCC[C@H](N)C(=O)Nc1ccc2c(C)cc(=O)oc2c1` [methionyl aminomethylcoumarin], the “fluorescence, substrate hydrolysis” value on EfMetAP1b [1] is “enzymatic activity was monitored by fluorescence readings following hydrolysis of the fluorogenic substrate, methionyl aminomethylcoumarin”; at HsMetAP1b [2] it was “enzymatic activity was monitored by fluorescence readings following hydrolysis of the fluorogenic substrate, methionyl aminomethylcoumarin”; at MtMetAP1c [3] it was “enzymatic activity was monitored by fluorescence readings following hydrolysis of the fluorogenic substrate, methionyl aminomethylcoumarin”.

For the compound `CCCCCCCCCCCCCC(=O)O[C@H]1CC[C@H](NC(=O)[C@H](OC)[C@H](O)[C@@H](O)[C@H](O)/C=C/C(C)C)C(=O)N(C)C1` [F12, bengamide B], the inhibition at 50 µM on EfMetAP1b [4] turned out to be 83.3%; against MtMetAP1c [5] it was 72.8%; against HsMetAP1b [6], 84.7%.
